Structures can show the parent of a compound that is named as a salt.
How the values were obtained:
[1] = test system: HTR induced by DOI; assay: Tolerance to DOI-induced HTR after repeated treatment; details: 10 mg/kg/day IP 7 days, DOI 1 mg/kg challenge 24 h later
[2] = test system: HTR induced by DOI; assay: Blockade of DOI-induced head-twitch response; details: 0.025 or 0.25 mg/kg, DOI 1 mg/kg
[3] = test system: head-twitch response; details: cited from earlier work
[4] = test system: 33 human aminergic GPCRs; assay: Pan-aminergic GPCR functional screen; assay type: cell-based; details: of 33 aminergic GPCR targets tested
[5] = test system: head-twitch response; assay: Head-twitch response
[6] = biological target: 5-HT4 (Homo sapiens, UniProt Q13639); assay: G protein dissociation BRET assay; assay type: cell-based
[7] = test system: rest of the histamine and muscarinic GPCRs; assay: G protein dissociation BRET assay; assay type: cell-based, human
[8] = test system: D1/5 subtypes; assay: G protein dissociation BRET assay; assay type: cell-based, human
[9] = biological target: D3 (Homo sapiens, UniProt P35462); assay: G protein dissociation BRET assay; assay type: cell-based; details: relative to dopamine
[10] = Forced swim test; assay type: in vivo, C57BL/6J mice; details: 0.125 mg/kg before 2-Br-LSD 1 mg/kg, females and males
[11] = Open field test; assay type: in vivo, C57BL/6J mice; details: 0.125 mg/kg alone or with 2-Br-LSD 1 mg/kg
[12] = test system: rat cortical neurons; assay: Dendritogenesis; assay type: cell-based
[13] = test system: rat cortical neurons; assay: Spinogenesis in cultured cortical neurons; assay type: cell-based; details: 10 μM, 3 h at DIV18, read 24 h after onset

Chain of D3 (P35462 whole entry): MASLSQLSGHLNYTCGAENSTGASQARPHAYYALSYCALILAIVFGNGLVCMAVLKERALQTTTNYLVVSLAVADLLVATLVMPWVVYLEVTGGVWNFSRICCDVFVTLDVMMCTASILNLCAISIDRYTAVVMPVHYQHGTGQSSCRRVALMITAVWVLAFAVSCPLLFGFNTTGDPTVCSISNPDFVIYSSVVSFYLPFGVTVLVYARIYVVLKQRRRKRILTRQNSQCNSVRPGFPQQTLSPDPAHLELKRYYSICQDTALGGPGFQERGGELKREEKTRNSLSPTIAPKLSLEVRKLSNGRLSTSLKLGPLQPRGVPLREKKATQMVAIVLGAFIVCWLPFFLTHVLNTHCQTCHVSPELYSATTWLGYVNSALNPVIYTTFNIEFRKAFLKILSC
Chain of 5-HT4 (Q13639 whole entry): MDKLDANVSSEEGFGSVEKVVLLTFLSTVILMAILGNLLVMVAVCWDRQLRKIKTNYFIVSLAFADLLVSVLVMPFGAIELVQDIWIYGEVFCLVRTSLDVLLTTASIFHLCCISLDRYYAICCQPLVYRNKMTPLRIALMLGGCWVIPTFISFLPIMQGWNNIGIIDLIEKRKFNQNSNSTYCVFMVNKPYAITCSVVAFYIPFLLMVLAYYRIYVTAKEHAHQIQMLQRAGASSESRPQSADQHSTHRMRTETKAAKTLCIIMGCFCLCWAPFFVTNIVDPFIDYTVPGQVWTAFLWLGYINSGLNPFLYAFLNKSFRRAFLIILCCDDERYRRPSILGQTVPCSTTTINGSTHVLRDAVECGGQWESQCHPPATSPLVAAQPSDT

## COc1cc(CC(C)N)c(OC)cc1I.Cl (racemic) [DOI, (±)-2,5-Dimethoxy-4-iodoamphetamine hydrochloride, reference compound]
[1]
  tolerance on HTR after repeated treatment: significant degree of tachyphylaxis

## CCCN1CCC[C@@H]2Cc3n[nH]cc3C[C@H]21 [(–)-quinpirole, (–)-quinpirole hydrochloride, reference compound]
[2]
  reduction of the response to DOI: ~ 20%
[3]
  effect on the HTR induced by LSD: does not alter the HTR

## CCN(CC)C(=O)[C@@H]1C=C2c3cccc4[nH]cc(c34)C[C@H]2N(C)C1.CCN(CC)C(=O)[C@@H]1C=C2c3cccc4[nH]cc(c34)C[C@H]2N(C)C1.O=C(O)C(O)C(O)C(=O)O [LSD, (+)-lysergic acid diethylamide (2:1) (+)-tartrate, reference compound]
[4]
  number of aminergic GPCR targets with agonist activity: 20
[5]; 0.1 mg/kg IP, male C57BL/6J mice, 60 min
  induction of the HTR: significant increase in HTR counts
[6]
  activity at 5-HT4: lack potent agonist or antagonist activity
[7]
  agonism or antagonism at the rest of the histamine and muscarinic GPCRs: neither 2-Br-LSD nor LSD possessed weak agonism or antagonism
[8]
  agonism at D1/5 subtypes: demonstrates agonist activity
[9]
  EMAX: 75%

## COc1cccc([C@H](O)C2CCN(CCc3ccc(F)cc3)CC2)c1OC [Vol, volinanserin, reference compound]
[10]
  effect of pre-treatment on 2-Br-LSD decrease in immobility: blocked the decrease in immobility
[11]
  locomotion in the OF: Neither Vol nor a combination of Vol and 2-Br-LSD affected locomotion
[12]; 0.1–1 μM
  dendritic arbor complexity, administered alone: did not change any parameter linked to dendritic arbor complexity
[12]; before 2-Br-LSD 1 μM
  effect of pre-treatment on 2-Br-LSD-induced total dendrite length: blocked the increase in total dendrite length

## COc1ccccc1N1CCN(CCN(C(=O)C2CCCCC2)c2ccccn2)CC1.O=C(O)/C=C\C(=O)O [WAY-100,635, N-[2-[4-(2-Methoxyphenyl)-1-piperazinyl]ethyl]-N-(2-pyridinyl)cyclohexanecarboxamide maleate, reference compound]
[5]; 1 mg/kg WAY-100,635, then 2-Br-LSD 3 mg/kg
  effect of pre-treatment on the response to 2-Br-LSD in the HTR assay: had no effect

## CNC1(c2ccccc2Cl)CCCCC1=O (stereo not drawn) [ketamine, Ketamine hydrochloride, reference compound]
[13]
  spine density: spine density increased

— paper PMC10112881 (Cell reports, 2023)
